{
  "source": "patent US20190374509A1",
  "about": "“Methods of Using Metamizole for Treatment of Pyrexia in Equines” (Kindred Biosciences, Inc., priority 2018, published 2019)",
  "test_system": "horses",
  "experiment": "Margin of safety study, IV three times daily for 9 days: coagulation panel (prothrombin time, APTT, fibrinogen)",
  "format": "in vivo",
  "settings": "for Prothrombin Time LS Means: averaged over time and sex",
  "description": "A study was conducted to evaluate the margin of safety of metamizole when administered intravenously to horses for 9 days at doses of 0 mg/kg (0×), 30 mg/kg (1×), 60 mg/kg (2×), and 90 mg/kg (3×) of body weight three times daily (TID), every 8 hours±30 min.\nThis was a prospective, blinded, randomized, placebo-controlled, parallel-group laboratory study in research horses. Thirty-two horses were enrolled in the study (Table 1).\nTreatment phase involved administration of the investigational drug or placebo. The investigational drug was a sterile injectable formulation of dipyrone (Zimeta™, Corden Pharma, Caponago, Italy) (500 mg/mL) in 100 mL glass bottles. The placebo was sterile injectable saline (Nova-Tech Inc, Grand Island, NE) (0.9% sodium chloride) in 500 mL plastic bottles labeled for veterinary use. Dipyrone treatment groups were 30 mg/kg (1×), 60 mg/kg (2×), and 90 mg/kg (3×). Placebo treatment group was saline administered at a volume to match the 3× dipyrone group (0×). The dose was calculated based on body weight and administered three times daily for nine consecutive days. Due to the large volume of injection at the higher dose groups, treatment was administered via indwelling intravenous (IV) catheters. Intravenous catheters were placed using standard techniques. Horses were sedated with xylazine (AnaSed® LA, VetOne, MWI, Boise, Id.) and the skin was desensitized with subcutaneous injection of lidocaine (VetOne, MWI, Boise, Id.). Intravenous catheters were replaced at the discretion of the study director and were maintained with heparinized saline flush prior to and following dose administration.\nRandomization occurred on Study Day −1. […] .\nFor continuous endpoints with repeated post-treatment measurements (serum chemistry, coagulation, hematology, urinalysis, body weight, body temperature, heart rate and respiratory rate), repeated measurement analysis of covariance (SAS MIXED procedure RMANCOVA) was used to evaluate a model including treatment, time, sex, treatment by sex interaction, treatment by time interaction, and treatment by time by sex three-way interaction as fixed effects. In addition, baseline values were included as a covariate and remained in the model regardless of its significance. Baseline values were defined as the values prior to and nearest to the first dosing. The covariance structures for repeated measures analysis of covariance (RMANCOVA) were selected from compound symmetry (CS) and compound symmetry heterogeneous variances (CSH), since only two post baseline measurements were collected in this study. The Kenward-Roger approximation was used to calculate denominator degrees of freedom for statistical tests. The minimum Akaike Information Criterion was used to select the covariance structure.\nIn Table 6 below the percent of samples in each treatment group that were above the upper reference range limit of 12 seconds is listed for Days 4 and 8.",
  "key": {"[1]": {"settings": "1X, 30 mg/kg IV every 8 hours, Day 4"}, "[2]": {"settings": "1X, 30 mg/kg IV every 8 hours, Day 8"}, "[3]": {"settings": "2X, 60 mg/kg IV every 8 hours, Day 4"}, "[4]": {"settings": "2X, 60 mg/kg IV every 8 hours, Day 8"}, "[5]": {"settings": "3X, 90 mg/kg IV every 8 hours, Day 4"}, "[6]": {"settings": "3X, 90 mg/kg IV every 8 hours, Day 8"}, "[7]": {"settings": "3X, 90 mg/kg IV every 8 hours, Day 8, only 7 samples"}, "[8]": {"settings": "30, 60, 90 mg/kg IV every 8 hours for 9 days vs placebo"}},
  "note": "Values joined by “and” are separate entries in the source; they are usually repeats but may differ in a detail not shown here. Equal values may be shown once.",
  "data": [
    {"smiles": "Cc1c(N(C)CS(=O)(=O)O)c(=O)n(-c2ccccc2)n1C", "note": "[dipyrone, [(2,3-dihydro-1,5-dimethyl-3-oxo-2-phenyl-1H-pyrazol-4-yl)methylamino] methanesulfonic acid]", "values": [
      {"measurement": "Percent of samples with PT >12 sec", "setting": "[1]", "value": 100, "unit": "%"},
      {"measurement": "Percent of samples with PT >14 sec", "setting": "[1]", "value": 25, "unit": "%"},
      {"measurement": "Prothrombin Time Day 4 Range", "setting": "[1]", "value": "12.6 to 14.6", "unit": "s"},
      {"measurement": "Range of PT values >14 sec", "setting": "[1]", "value": "14.1 to 14.6", "unit": "s"},
      {"measurement": "Percent of samples with PT >12 sec", "setting": "[2]", "value": 100, "unit": "%"},
      {"measurement": "Percent of samples with PT >14 sec", "setting": "[2]", "value": 13, "unit": "%"},
      {"measurement": "Prothrombin Time Day 8 Range", "setting": "[2]", "value": "12.3 to 15.2", "unit": "s"},
      {"measurement": "Range of PT values >14 sec", "setting": "[2]", "value": "(15.2) sec"},
      {"measurement": "Prothrombin Time LS Means", "setting": "1X, 30 mg/kg IV every 8 hours", "value": "13.374 s and 13.374 ± 0.4062 s"},
      {"measurement": "Percent of samples with PT >12 sec", "setting": "[3]", "value": 100, "unit": "%"},
      {"measurement": "Percent of samples with PT >14 sec", "setting": "[3]", "value": 13, "unit": "%"},
      {"measurement": "Prothrombin Time Day 4 Range", "setting": "[3]", "value": "12.7 to 15.8", "unit": "s"},
      {"measurement": "Range of PT values >14 sec", "setting": "[3]", "value": 15.8, "unit": "s"},
      {"measurement": "Percent of samples with PT >12 sec", "setting": "[4]", "value": 100, "unit": "%"},
      {"measurement": "Percent of samples with PT >14 sec", "setting": "[4]", "value": 50, "unit": "%"},
      {"measurement": "Prolongation of PT observed, number of horses", "setting": "[4]", "value": 1},
      {"measurement": "Prothrombin Time Day 8 Range", "setting": "[4]", "value": "12.8 to 21.6", "unit": "s"},
      {"measurement": "Range of PT values >14 sec", "setting": "[4]", "value": "(14.7-21.6) sec"},
      {"measurement": "Prothrombin Time LS Means", "setting": "2X, 60 mg/kg IV every 8 hours", "value": "14.524 s and 14.524 ± 0.4064 s"},
      {"measurement": "Percent of samples with PT >12 sec", "setting": "[5]", "value": 100, "unit": "%"},
      {"measurement": "Percent of samples with PT >14 sec", "setting": "[5]", "value": 75, "unit": "%"},
      {"measurement": "Prothrombin Time Day 4 Range", "setting": "[5]", "value": "13.4 to 15.9", "unit": "s"},
      {"measurement": "Range of PT values >14 sec", "setting": "[5]", "value": "14.6 to 15.9", "unit": "s"},
      {"measurement": "Prolongation of PT observed, number of horses", "setting": "[6]", "value": 1},
      {"measurement": "Prothrombin Time Day 8 Range", "setting": "[6]", "value": "12.7 to 21.9", "unit": "s"},
      {"measurement": "Range of PT values >14 sec", "setting": "[6]", "value": "(14.3-21.9) sec"},
      {"measurement": "Percent of samples with PT >12 sec", "setting": "[7]", "value": 100, "unit": "%^4"},
      {"measurement": "Percent of samples with PT >14 sec", "setting": "[7]", "value": 71, "unit": "%^4"},
      {"measurement": "Prothrombin Time LS Means", "setting": "3X, 90 mg/kg IV every 8 hours", "value": "14.946 s and 14.946 ± 0.4396 s"},
      {"measurement": "Activated partial thromboplastin time (APTT) or fibrinogen", "setting": "[8]", "value": "no statistically significant differences"},
      {"measurement": "Effect on prothrombin time (PT)", "setting": "[8]", "value": "statistically significant main treatment effect of prolongation of prothrombin time (PT)"}
    ]}
  ]
}
